Experimental data from US7582312B2, “Methods to produce lung surfactant formulations via lyophilization and formulations and uses thereof” (Discovery Laboratories, Inc., priority 2004, dated 2009).
≈ marks a conversion by molar mass, not a printed value. Where no end group is shown, it is not given here.

Key:
physchem = settings: 37 °C, aqueous with cosolvent or surfactant or cyclodextrin, thermodynamic from solid
[1] = Individual component solubilities in t-butanol/water solutions (HPLC); settings: about 37° C.; for solubility at 30 min: 37 °C, thermodynamic from solid
[2] = Achievable dissolution concentrations of components in 60% TBA cosolvent without NaCl; settings: for Measured Concentration, 1: replicate 1; for Measured Concentration, 2: replicate 2; for Measured Concentration, 3: replicate 3; for Measured Concentration, AVG: room temperature, individual component
[3] = 50% t-butanol in water, aqueous with cosolvent or surfactant or cyclodextrin
[4] = 80% t-butanol in water, organic solvent or mixture
[5] = 90% t-butanol in water, organic solvent or mixture
[6] = 95% t-butanol in water, organic solvent or mixture
[7] = 100% t-butanol, organic solvent or mixture

KLLLLKLLLLKLLLLKLLLLK [KL4]
Solubility (physchem): > 67 mg/mL

CCCCCCCCCCCCCCCCO [CA, cetyl alcohol]
solubility at 30 min [1, 3]: 14 mg/mL (≈ 57.7 mM) | solubility at 30 min [1, 4]: > 224 mg/mL | solubility at 30 min [1, 5]: > 229 mg/mL | solubility at 30 min [1, 6]: > 251 mg/mL | solubility at 30 min [1, 7]: > 270 mg/mL

CCCCCCCCCCCCCCCC(=O)OC[C@H](COP(=O)([O-])OCC[N+](C)(C)C)OC(=O)CCCCCCCCCCCCCCC [DPPC, dipalmitoyl phosphatidylcholine]
solubility at 30 min [1, 3]: > 49 mg/mL | solubility at 30 min [1, 4]: > 133 mg/mL | solubility at 30 min [1, 5]: > 145 mg/mL | solubility at 30 min [1, 6]: > 150 mg/mL | solubility at 30 min [1, 7]: > 150 mg/mL | Measured Concentration, 1 [2]: 34.8 mg/mL | Measured Concentration, 2 [2]: 35.0 mg/mL | Measured Concentration, 3 [2]: 35.2 mg/mL | Measured Concentration, AVG [2]: 35.0 mg/mL

CCCCCCCC/C=C\CCCCCCCC(=O)O[C@H](COC(=O)CCCCCCCCCCCCCCC)COP(=O)(O)OCC(O)CO (some centres unmarked) [POPG, palmitoyloleoyl phosphatidylglycerol]
Solubility ([1]; 50% t-butanol in water): >47 mg/mL | Solubility ([1]; 80% t-butanol in water): >119 mg/mL | Solubility ([1]; 90% t-butanol in water): >160 mg/mL | Solubility ([1]; 95% t-butanol in water): 34 mg/mL (≈ 45.4 mM) | Solubility ([1]; 97.5% t-butanol in water): 20 mg/mL (≈ 26.7 mM) | Solubility ([1]; 99% t-butanol in water): <5 mg/mL | Solubility ([1]; 100% t-butanol): <5 mg/mL | Measured Concentration, 1 [2]: 298.4 mg/mL | Measured Concentration, 2 [2]: 283.7 mg/mL | Measured Concentration, 3 [2]: 290.6 mg/mL | Measured Concentration, AVG [2]: 290.9 mg/mL
